{
  "source": "ChEMBL document CHEMBL5727311",
  "about": "“Heterobicyclic N-aminophenyl-amides as inhibitors of histone deacetylase” (2019)",
  "biological_target": "Histone deacetylase 2 (Homo sapiens, UniProt Q92769)",
  "sequence (Q92769 whole entry)": "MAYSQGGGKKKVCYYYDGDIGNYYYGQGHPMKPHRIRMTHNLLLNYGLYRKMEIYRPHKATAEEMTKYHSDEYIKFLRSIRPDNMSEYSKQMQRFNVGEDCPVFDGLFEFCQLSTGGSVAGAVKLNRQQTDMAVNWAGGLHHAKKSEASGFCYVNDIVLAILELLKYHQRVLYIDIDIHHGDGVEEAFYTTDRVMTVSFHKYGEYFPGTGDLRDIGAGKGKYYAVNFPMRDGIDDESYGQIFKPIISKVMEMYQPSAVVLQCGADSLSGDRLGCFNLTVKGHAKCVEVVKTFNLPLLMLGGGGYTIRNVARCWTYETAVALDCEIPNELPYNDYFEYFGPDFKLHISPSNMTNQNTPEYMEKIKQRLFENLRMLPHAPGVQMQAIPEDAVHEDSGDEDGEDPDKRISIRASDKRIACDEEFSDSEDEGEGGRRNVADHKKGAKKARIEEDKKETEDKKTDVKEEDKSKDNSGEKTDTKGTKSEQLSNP",
  "assay": "Reporter Displacement Assay: HDAC2 containing a C-terminal HIS-Tag (Proteros) and fluorescently-labeled anti-HIS-antibody are diluted in one vial in assay buffer 50 mM Tris, pH 8.0, 1 mM DTT, 150 mM NaCl, and 0.01% Tween20. Components are pre-incubated for 30 min, then a small volume of reporter probe (Proteros) is added from a highly concentrated stock and incubation is continued for another 30 min. Final concentrations after adding the reporter probe amount to 20 nM HDAC2, 4 nM antibody, and 180 nM probe.",
  "data": [
    {"smiles": "Nc1ccc(-c2ccncc2)cc1NC(=O)N1Cc2cncnc2C1", "values": [
      {"measurement": "Kd", "result": "< 100", "unit": "nM"}
    ]}
  ]
}
